Tests used:
Bleomycin + Trametinib = compound: CC1=C(N=C(N=C1N)[C@H](CC(=O)N)NC[C@@H](C(=O)N)N)C(=O)N[C@@H]([C@H](C2=CN=CN2)OC3C(C(C(C(O3)CO)O)O)OC4C(C(C(C(O4)CO)O)OC(=O)N)O)C(=O)N[C@H](C)[C@H]([C@H](C)C(=O)N[C@@H]([C@@H](C)O)C(=O)NCCC5=NC(=CS5)C6=NC(=CS6)C(=O)NCCC[S+](C)C)O [Bleomycin] + CC(=O)Nc1cccc(-n2c(=O)n(C3CC3)c(=O)c3c(Nc4ccc(I)cc4F)n(C)c(=O)c(C)c32)c1 [Trametinib] (partner 0.02 µM); experiment: relative viability (nuclei count vs DMSO), 5 days (fraction); higher = more cells survive; details: main component drawn
Method in brief: (§1)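 Lung cancer cell lines, seeded in 1536-well plates, were treated the following day by pin tool with a single drug or with five library-drug doses (not always all listed) in √10 steps on top of a fixed anchor-drug dose. Cells were fixed and nuclei stained in one step after 5 days, and nuclei were counted. Relative viability is the nuclei count for treated wells divided by that for vehicle wells, reported as medians of duplicate plates.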

Etoposide + Dasatinib = compound: COc1cc([C@@H]2c3cc4c(cc3[C@@H](O[C@@H]3O[C@@H]5CO[C@@H](C)O[C@H]5[C@H](O)[C@H]3O)[C@H]3COC(=O)[C@H]23)OCO4)cc(OC)c1O [Etoposide] + Cc1nc(Nc2ncc(C(=O)Nc3c(C)cccc3Cl)s2)cc(N2CCN(CCO)CC2)n1 [Dasatinib] (partner 0.075 µM); experiment: as above
Method in brief: as §1

Cell Line HCC-15 has a relative viability (Bleomycin + Trametinib; first compound 0.01 µM) of 0.348, a relative viability (Bleomycin + Trametinib; first compound 0.03162 µM) of 0.338 and a relative viability (Bleomycin + Trametinib; first compound 0.1 µM) of 0.365. The relative viability (Bleomycin + Trametinib; first compound 0.3162 µM) was 0.209, the relative viability (Bleomycin + Trametinib; first compound 1 µM) was 0.186 and the relative viability (Etoposide + Dasatinib; first compound 0.01 µM) was 0.623. The relative viability (Etoposide + Dasatinib; first compound 0.03162 µM) was 0.64, the relative viability (Etoposide + Dasatinib; first compound 0.1 µM) was 0.537 and the relative viability (Etoposide + Dasatinib; first compound 0.3162 µM) was 0.261. The relative viability (Etoposide + Dasatinib; first compound 1 µM) was 0.0797.
For EKVX, the relative viability (Bleomycin + Trametinib; first compound 0.01 µM) was 0.396, the relative viability (Bleomycin + Trametinib; first compound 0.03162 µM) was 0.298 and the relative viability (Bleomycin + Trametinib; first compound 0.1 µM) was 0.301. For the same cell line, the relative viability (Bleomycin + Trametinib; first compound 0.3162 µM) was 0.196, the relative viability (Bleomycin + Trametinib; first compound 1 µM) was 0.158 and the relative viability (Etoposide + Dasatinib; first compound 0.01 µM) was 0.619. The relative viability (Etoposide + Dasatinib; first compound 0.03162 µM) was 0.529, the relative viability (Etoposide + Dasatinib; first compound 0.1 µM) was 0.354 and the relative viability (Etoposide + Dasatinib; first compound 0.3162 µM) was 0.37. The relative viability (Etoposide + Dasatinib; first compound 1 µM) was 0.282.
For NCI-H2126, the relative viability (Bleomycin + Trametinib; first compound 0.01 µM) was 0.525, the relative viability (Bleomycin + Trametinib; first compound 0.03162 µM) was 0.583 and the relative viability (Bleomycin + Trametinib; first compound 0.1 µM) was 0.594. The relative viability (Bleomycin + Trametinib; first compound 0.3162 µM) was 0.52, the relative viability (Bleomycin + Trametinib; first compound 1 µM) was 0.508 and the relative viability (Etoposide + Dasatinib; first compound 0.01 µM) was 0.668. For the same cell line, the relative viability (Etoposide + Dasatinib; first compound 0.03162 µM) was 0.568, the relative viability (Etoposide + Dasatinib; first compound 0.1 µM) was 0.434 and the relative viability (Etoposide + Dasatinib; first compound 0.3162 µM) was 0.485. The relative viability (Etoposide + Dasatinib; first compound 1 µM) was 0.244.
LK-2 showed a relative viability (Bleomycin + Trametinib; first compound 0.01 µM) of 0.474, a relative viability (Bleomycin + Trametinib; first compound 0.03162 µM) of 0.389 and a relative viability (Bleomycin + Trametinib; first compound 0.1 µM) of 0.449. For the same cell line, the relative viability (Bleomycin + Trametinib; first compound 0.3162 µM) was 0.263, the relative viability (Bleomycin + Trametinib; first compound 1 µM) was 0.254 and the relative viability (Etoposide + Dasatinib; first compound 0.01 µM) was 0.248. The relative viability (Etoposide + Dasatinib; first compound 0.03162 µM) was 0.297, the relative viability (Etoposide + Dasatinib; first compound 0.1 µM) was 0.275 and the relative viability (Etoposide + Dasatinib; first compound 0.3162 µM) was 0.301. For the same cell line, the relative viability (Etoposide + Dasatinib; first compound 1 µM) was 0.181.
For NCI-H1437, the relative viability (Bleomycin + Trametinib; first compound 0.01 µM) was 0.475, the relative viability (Bleomycin + Trametinib; first compound 0.03162 µM) was 0.411 and the relative viability (Bleomycin + Trametinib; first compound 0.1 µM) was 0.678. The relative viability (Bleomycin + Trametinib; first compound 0.3162 µM) was 0.439, the relative viability (Bleomycin + Trametinib; first compound 1 µM) was 0.276 and the relative viability (Etoposide + Dasatinib; first compound 0.01 µM) was 0.585. For the same cell line, the relative viability (Etoposide + Dasatinib; first compound 0.03162 µM) was 0.443, the relative viability (Etoposide + Dasatinib; first compound 0.1 µM) was 0.283 and the relative viability (Etoposide + Dasatinib; first compound 0.3162 µM) was 0.29. It also gave a relative viability (Etoposide + Dasatinib; first compound 1 µM) of 0.165.
COR-L23 was tested, and the relative viability (Bleomycin + Trametinib; first compound 0.01 µM) was 0.432, the relative viability (Bleomycin + Trametinib; first compound 0.03162 µM) was 0.518 and the relative viability (Bleomycin + Trametinib; first compound 0.1 µM) was 0.303. It also gave a relative viability (Bleomycin + Trametinib; first compound 0.3162 µM) of 0.133, a relative viability (Bleomycin + Trametinib; first compound 1 µM) of 0.129 and a relative viability (Etoposide + Dasatinib; first compound 0.01 µM) of 0.398. The relative viability (Etoposide + Dasatinib; first compound 0.03162 µM) was 0.461, the relative viability (Etoposide + Dasatinib; first compound 0.1 µM) was 0.428 and the relative viability (Etoposide + Dasatinib; first compound 0.3162 µM) was 0.26. For the same cell line, the relative viability (Etoposide + Dasatinib; first compound 1 µM) was 0.161.
In the case of ABC-1, the relative viability (Etoposide + Dasatinib; first compound 0.01 µM) is reported as 0.535, the relative viability (Etoposide + Dasatinib; first compound 0.03162 µM) is reported as 0.597 and the relative viability (Etoposide + Dasatinib; first compound 0.1 µM) is reported as 0.336. The relative viability (Etoposide + Dasatinib; first compound 0.3162 µM) was 0.248 and the relative viability (Etoposide + Dasatinib; first compound 1 µM) was 0.207.
SW 900 showed a relative viability (Bleomycin + Trametinib; first compound 0.01 µM) of 0.858, a relative viability (Bleomycin + Trametinib; first compound 0.03162 µM) of 0.561 and a relative viability (Bleomycin + Trametinib; first compound 0.1 µM) of 0.453. The relative viability (Bleomycin + Trametinib; first compound 0.3162 µM) was 0.259, the relative viability (Bleomycin + Trametinib; first compound 1 µM) was 0.197 and the relative viability (Etoposide + Dasatinib; first compound 0.01 µM) was 0.62. The relative viability (Etoposide + Dasatinib; first compound 0.03162 µM) was 0.659, the relative viability (Etoposide + Dasatinib; first compound 0.1 µM) was 0.395 and the relative viability (Etoposide + Dasatinib; first compound 0.3162 µM) was 0.591. The relative viability (Etoposide + Dasatinib; first compound 1 µM) was 0.147.
In the case of PC-14, the relative viability (Bleomycin + Trametinib; first compound 0.01 µM) is reported as 0.243, the relative viability (Bleomycin + Trametinib; first compound 0.03162 µM) is reported as 0.205 and the relative viability (Bleomycin + Trametinib; first compound 0.1 µM) is reported as 0.133. For the same cell line, the relative viability (Bleomycin + Trametinib; first compound 0.3162 µM) was 0.0541, the relative viability (Bleomycin + Trametinib; first compound 1 µM) was 0.0419 and the relative viability (Etoposide + Dasatinib; first compound 0.01 µM) was 0.266. For the same cell line, the relative viability (Etoposide + Dasatinib; first compound 0.03162 µM) was 0.227, the relative viability (Etoposide + Dasatinib; first compound 0.1 µM) was 0.276 and the relative viability (Etoposide + Dasatinib; first compound 0.3162 µM) was 0.217. The relative viability (Etoposide + Dasatinib; first compound 1 µM) was 0.151.
NCI-H1648 was tested, and the relative viability (Bleomycin + Trametinib; first compound 0.01 µM) was 0.388, the relative viability (Bleomycin + Trametinib; first compound 0.03162 µM) was 0.4 and the relative viability (Bleomycin + Trametinib; first compound 0.1 µM) was 0.416. It also gave a relative viability (Bleomycin + Trametinib; first compound 0.3162 µM) of 0.269 and a relative viability (Bleomycin + Trametinib; first compound 1 µM) of 0.295.
A-427 was tested, and the relative viability (Bleomycin + Trametinib; first compound 0.01 µM) was 0.607, the relative viability (Bleomycin + Trametinib; first compound 0.03162 µM) was 0.558 and the relative viability (Bleomycin + Trametinib; first compound 0.1 µM) was 0.417. The relative viability (Bleomycin + Trametinib; first compound 0.3162 µM) was 0.261, the relative viability (Bleomycin + Trametinib; first compound 1 µM) was 0.212 and the relative viability (Etoposide + Dasatinib; first compound 0.01 µM) was 0.702. For the same cell line, the relative viability (Etoposide + Dasatinib; first compound 0.03162 µM) was 0.818, the relative viability (Etoposide + Dasatinib; first compound 0.1 µM) was 0.435 and the relative viability (Etoposide + Dasatinib; first compound 0.3162 µM) was 0.446. It also gave a relative viability (Etoposide + Dasatinib; first compound 1 µM) of 0.2.
With NCI-H1792 the relative viability (Bleomycin + Trametinib; first compound 0.01 µM) was 0.462, the relative viability (Bleomycin + Trametinib; first compound 0.03162 µM) was 0.396 and the relative viability (Bleomycin + Trametinib; first compound 0.1 µM) was 0.356. The relative viability (Bleomycin + Trametinib; first compound 0.3162 µM) was 0.317, the relative viability (Bleomycin + Trametinib; first compound 1 µM) was 0.189 and the relative viability (Etoposide + Dasatinib; first compound 0.01 µM) was 0.699. The relative viability (Etoposide + Dasatinib; first compound 0.03162 µM) was 0.695, the relative viability (Etoposide + Dasatinib; first compound 0.1 µM) was 0.658 and the relative viability (Etoposide + Dasatinib; first compound 0.3162 µM) was 0.72. It also gave a relative viability (Etoposide + Dasatinib; first compound 1 µM) of 0.549.
For LCLC-97TM1, the relative viability (Bleomycin + Trametinib; first compound 0.01 µM) was 0.169, the relative viability (Bleomycin + Trametinib; first compound 0.03162 µM) was 0.195 and the relative viability (Bleomycin + Trametinib; first compound 0.1 µM) was 0.16. For the same cell line, the relative viability (Bleomycin + Trametinib; first compound 0.3162 µM) was 0.169, the relative viability (Bleomycin + Trametinib; first compound 1 µM) was 0.106 and the relative viability (Etoposide + Dasatinib; first compound 0.01 µM) was 0.858. The relative viability (Etoposide + Dasatinib; first compound 0.03162 µM) was 0.943, the relative viability (Etoposide + Dasatinib; first compound 0.1 µM) was 0.933 and the relative viability (Etoposide + Dasatinib; first compound 0.3162 µM) was 0.681. It also gave a relative viability (Etoposide + Dasatinib; first compound 1 µM) of 0.179.
In the case of LCLC-103H, the relative viability (Bleomycin + Trametinib; first compound 0.01 µM) is reported as 0.628, the relative viability (Bleomycin + Trametinib; first compound 0.03162 µM) is reported as 0.678 and the relative viability (Bleomycin + Trametinib; first compound 0.1 µM) is reported as 0.62. The relative viability (Bleomycin + Trametinib; first compound 0.3162 µM) was 0.691, the relative viability (Bleomycin + Trametinib; first compound 1 µM) was 0.507 and the relative viability (Etoposide + Dasatinib; first compound 0.01 µM) was 0.466. It also gave a relative viability (Etoposide + Dasatinib; first compound 0.03162 µM) of 0.482, a relative viability (Etoposide + Dasatinib; first compound 0.1 µM) of 0.417 and a relative viability (Etoposide + Dasatinib; first compound 0.3162 µM) of 0.546. It also gave a relative viability (Etoposide + Dasatinib; first compound 1 µM) of 0.42.

Reference: the supplement of paper PMC10307832
